Measured values from PMC7972453, “The allosteric modulation of complement C5 by knob domain peptides” (eLife, 2021).
Bridges are numbered along the chain shown (N, C = ends). Where no end group is shown, it is not given here.

How the values were obtained:
[1] = target: T1, human C5b (Homo sapiens, UniProt P01031); experiment: SPR single-cycle kinetics, binding to C5b
T1 construct: Upon cleavage of C5a, the remaining domains of the α-chain undergo a substantial conformational change; C5a was removed using a spin column with 30 kDa cut-off; tissue TCS Biosciences (serum); host or cells: human serum; C5 cleaved in house with CVF, factor B and factor D
T1 sequence (P01031 752-1676 limits assumed): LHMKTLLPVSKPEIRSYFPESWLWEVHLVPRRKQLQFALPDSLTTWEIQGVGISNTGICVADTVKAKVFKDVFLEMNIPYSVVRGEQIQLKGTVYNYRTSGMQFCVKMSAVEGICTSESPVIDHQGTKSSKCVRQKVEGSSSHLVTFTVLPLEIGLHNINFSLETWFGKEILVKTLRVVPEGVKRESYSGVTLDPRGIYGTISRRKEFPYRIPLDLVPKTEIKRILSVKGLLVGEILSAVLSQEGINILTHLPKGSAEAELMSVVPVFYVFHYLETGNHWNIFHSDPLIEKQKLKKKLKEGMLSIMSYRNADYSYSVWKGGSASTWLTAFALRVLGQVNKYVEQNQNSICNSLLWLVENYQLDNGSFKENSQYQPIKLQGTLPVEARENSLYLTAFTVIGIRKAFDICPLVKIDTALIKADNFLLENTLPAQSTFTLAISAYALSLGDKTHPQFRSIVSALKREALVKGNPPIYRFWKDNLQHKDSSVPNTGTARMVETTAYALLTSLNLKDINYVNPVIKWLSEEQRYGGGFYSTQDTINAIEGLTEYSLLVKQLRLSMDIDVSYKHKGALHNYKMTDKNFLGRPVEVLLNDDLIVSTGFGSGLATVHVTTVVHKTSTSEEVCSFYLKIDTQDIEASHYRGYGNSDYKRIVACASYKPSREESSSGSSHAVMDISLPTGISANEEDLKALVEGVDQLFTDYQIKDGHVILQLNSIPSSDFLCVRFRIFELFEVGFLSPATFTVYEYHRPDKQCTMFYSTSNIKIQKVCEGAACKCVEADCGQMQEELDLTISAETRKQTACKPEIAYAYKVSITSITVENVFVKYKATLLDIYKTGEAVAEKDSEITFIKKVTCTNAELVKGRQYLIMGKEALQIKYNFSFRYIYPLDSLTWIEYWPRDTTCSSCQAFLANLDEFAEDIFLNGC
T1 sequence (P01031 19-673 limits assumed): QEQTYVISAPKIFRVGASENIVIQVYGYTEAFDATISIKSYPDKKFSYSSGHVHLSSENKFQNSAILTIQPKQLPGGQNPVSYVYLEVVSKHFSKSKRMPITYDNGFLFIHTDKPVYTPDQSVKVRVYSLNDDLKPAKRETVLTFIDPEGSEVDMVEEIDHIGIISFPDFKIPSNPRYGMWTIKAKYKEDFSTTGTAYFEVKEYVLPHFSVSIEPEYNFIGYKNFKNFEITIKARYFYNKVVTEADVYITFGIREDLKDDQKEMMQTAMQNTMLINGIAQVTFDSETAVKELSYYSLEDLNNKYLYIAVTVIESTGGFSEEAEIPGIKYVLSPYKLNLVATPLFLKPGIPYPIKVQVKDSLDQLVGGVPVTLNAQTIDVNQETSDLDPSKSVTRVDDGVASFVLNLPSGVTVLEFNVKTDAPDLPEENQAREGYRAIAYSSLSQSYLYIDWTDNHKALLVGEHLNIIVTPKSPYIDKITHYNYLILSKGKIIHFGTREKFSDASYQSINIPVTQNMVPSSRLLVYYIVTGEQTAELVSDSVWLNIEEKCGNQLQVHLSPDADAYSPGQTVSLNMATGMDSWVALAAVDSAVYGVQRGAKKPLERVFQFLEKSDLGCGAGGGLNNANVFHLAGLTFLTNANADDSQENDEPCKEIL
Description: Human C5 was affinity purified using an E141A, H164A OmCI column ([Macpherson et al., 2018]). Briefly, human serum (TCS Biosciences, Botolph Claydon, UK) was diluted 1:1 (v/v) with phosphate buffered saline (PBS), 20 mM ethylenediaminetetraacetic acid (EDTA), and applied to a 5 mL Hi-Trap NHS column (GE Healthcare, Amersham UK), which contained 20 mg of E141A H164A OmCI protein, at a rate of 1 mL/min. The column was washed with 5× column volumes (CV) of PBS, C5 was then eluted using 2 M MgCl2 and immediately dialysed into PBS. C5b was prepared from human C5 by incubating C5 with CVF, factor B and factor D, at a 1:10 molar ratio, as previously described ([Jore et al., 2016]). C5a was removed using a spin column with 30 kDa cut-off (Thermo Fisher Scientific, Horsham, UK).
On a Biacore 8K (GE Healthcare, Amersham, UK), human C5b was immobilised on a CM5 chip (GE Healthcare, Amersham, UK). Flow cells were activated using a standard immobilisation protocol: EDC/NHS was mixed at 1:1 ratio (flow rate, 10 µL/min; contact time, 30 s). C5b, at 1 µg/mL, or C5b-6 (Complement Technologies, Tyler, TX), at 2 µg/mL, in pH 4.5 sodium acetate buffer, were immobilised on flow cell two only (flow rate, 10 µL/min; contact time, 420 s). Finally, ethanolamine was applied to both flow cells (flow rate, 10 µL/min; contact time, 420 s). A final immobilisation level of 500–700 RUs was obtained for C5b and 1000–1150 RUs were obtained for C5b-6. Single-cycle kinetics were measured using a seven-point, threefold serial dilution (spanning a range of 1 µM to 1.4 nM) in HBS-EP buffer (GE Healthcare, Amersham, UK). A high flow rate of 40 µL/min was used, with a contact time of 300 s and a dissociation time of 2700 s. Binding to the reference surface was subtracted, and the data were fitted to a single-site binding model using Biacore evaluation software. All sensorgrams were inspected for evidence of mass transport limitation using the flow rate-independent component of the mass transfer constant (tc).
Table 4.1. SPR single-cycle kinetics of knob domains binding to human C5b.

[2] = tested on: C3b deposition; experiment: C3b deposition ELISA (CP and AP); format: biochemical; conditions: CP (1% serum) and AP (5% serum) ELISA, anti-human C3d
Description: For the C3 and C9 ELISAs, microtiter plates (MaxiSorp; Nunc) were incubated overnight at 4°C with 50 µL of a solution of in 75 mM sodium carbonate (pH 9.6) containing either 2.5 µg/mL aggregated human IgG (Sigma-Aldrich, Gillingham, UK) for CP or 20 µg/mL zymosan (Sigma-Aldrich, Gillingham, UK) for AP. As a negative control, wells were coated with 1% (w/v) bovine serum albumin (BSA)/PBS. Microtiter plates were washed four times with 250 µL of wash buffer (50 mM Tris-HCl), 150 mM NaCl and 0.1% Tween 20 (pH 8) between each step of the procedure. Wells were blocked using 250 µL of 1% (w/v) BSA/PBS for 2 hr at room temperature. […] Complement activation was assessed through detection of deposited complement activation factors using specific antibodies against C3b (rat anti-human C3d HM2198, Hycult, Uden, The Netherlands) and C9 (goat anti-human C9, A226, Complement Technologies Tyler, TX) at a 1:1000 dilution. Bound primary antibodies were detected with […]-conjugated goat anti-rat (ab97057, Abcam, Cambridge, UK) or rabbit anti-goat (P0449, Agilent Dako, Santa Clara, CA) secondary antibodies at a 1:1000 dilution. Bound HRP-conjugated antibodies were detected using TMB One solution (Eco-TEK – manufactured by Bio-TEK, Winooski, VT) with absorbance measured at 450 nm.

Sequence: SVCPDGFDWGYGCAAGSSRFCTRHDWCCYDERADSHTYGFCTGNRVENLYFQ (disulfide 3-28, 13-21, 27-41) [K8]
- binding to C5b (in words) ([1]; SPR single-cycle kinetics): did not bind C5b
- Stoichiometric ratio ([1]; replicate n=1): 0.1
- comment (binding) ([1]; replicate n=1): Non-binding
- Stoichiometric ratio ([1]; replicate n=2): 0.1
- comment (binding) ([1]; replicate n=2): Non-binding
- Stoichiometric ratio ([1]; replicate n=3): 0.2
- comment (binding) ([1]; replicate n=3): Non-binding
- Mean stoichiometric ratio ([1]; summary of n=3): 0.1
- comment (binding) ([1]; summary of n=3): Non-binding
- effect on C3b deposition [2]: no effect on C3b deposition was detected
